Experimental data published in US6232314A, “Arylalkylpiperazine compounds as antioxidants” (Monash University, priority 1996, dated 2001).
Read-outs that look alike come from different tables or passages of the source.

How the values were obtained:
[1] = tested on: lipid peroxidation (MDA formation) in rat brain homogenate; experiment: Antioxidant assay: Fe3+-stimulated lipid peroxidation (TBARs / MDA formation) in rat brain homogenate; format: biochemical
From the text: Lipid peroxidation has been assessed in the present study using two procedures adopted from that described by Ohkawa et al. (1979) and Cheng et al. (1994). The compounds of the present invention have shown significant antioxidant effect in both assay systems.
Malondialdehyde (MDA) is one of the breakdown products of lipid peroxidation. MDA reacts with thiobarbituric acid (TBA) to produce a characteristic pink colour that can be measured spectrophotomerically. […] The present method has been modified from those described by Ohkawa et al. (1979) and Cheng et al. (1994).
Briefly, rat brain 10% homogenates were prepared in aqueous 20 mM Tris-HCl buffer, pH 7.4 media using a Polytron homogeniser. Assays contained 100 μl of rat brain homogenate and various concentrations of test compound (10 μl) were incubated for 10 min at 37° C. Ten μl of 1.0 or 0.1 mM Fe^3+ solution was then added to stimulate lipid peroxidation and the homogenates were incubated for a further 30 min at 37° C. The reaction was stopped by addition of sodium dodecyl sulphate (100 μl of 8.1% wt/vol solution) and 750 μl of 20% sodium acetate buffer (pH 3.5). The precipitated proteins were then removed by centrifugation at 10000 g for 15 min. Five hundred μl of clear supernatant was heated with 1 ml TBA solution (0.8% wt/vol) at 95° C. for 60 min. The samples were cooled and 200 μl of each sample was pipetted into a 96 well plate and absorbencies read at 532 nm using a Ceres UV900C microplate reader. Blank values representing samples containing 20 mM Tris-HCl and Fe^3+ only were subtracted from all values. Each value was expressed as a percentage of that for samples containing homogenate and Fe^3+ only (ie, no drug). From concentration response curves the concentrations causing 50% inhibition of MDA formation (IC50 values) for the test compounds were determined by computer-assisted linear regression analysis according to published methods (Leutner, 1982). These compared favourably with the values obtained in the assay with the benchmark antioxidant compound trolox. […]

[2] = biological target: NMDA receptor-ionophore complex (polyamine-sensitive ifenprodil binding site); experiment: NMDA assay: competitive binding against [125I]ifenprodil in rat cortical membranes; settings: 30 min, 20° C., pH 7.7
Method: The NMDA receptor-ionophore complex consists of a number of interacting domains, including one for polyamines where ifenprodil binds to exert its non-competitive antagonism.
The purified material was stored in methanol at -20° C.
Incubations were for 30 min. at 20° C., in triplicate, employing 12 concentrations of competing drugs. Non-specific binding was defined with 10 mM spermine. Assays were terminated by rapid filtration through GF/B filter paper and washing.

[3] = tested on: murine neocortical neurones; experiment: Assay for NMDA-induced toxicity in neuronal cultures (MTT); format: cell-based; settings: Mus musculus, NMDA 600 μM, 1 h, compound added 30 min prior, read-out: EC50 (inhibition of NMDA-induced toxicity)
Method: Neuronal cell death was assessed using a 3-(4,5-dimethylthiazol-2yl)-2,5-diphenyltetrazolium bromide (MTT) assay in which NMDA-induced cellular changes are reflected as altered mitochondrial activity (Ankarcrona et al., 1995), as estimated by the formation of a formazan dye, which is measured spectrophotometrically. The procedure employed is essentially that of Roehm et al. (1991) with minor modifications as previously described elsewhere in work from our laboratories Larm et al. (1996).
Primary cultures of murine neocortical neurones were established as described elsewhere (Larm et al., 1996). The effects of experimental compounds were tested in the cultures at 8 days in vitro. Exposure to NMDA (600 μM, 1 h) and other compounds was performed in an humidified incubator (5% CO2, 8% O2) at 37° C. in anti-oxidant free medium with compounds under evaluation being added 30 min prior to NMDA. For these conditions the culture medium was modified by omitting the following components: D,L-α-tocopherol, D,L-α-tocopherol acetate, catalase, superoxide dismutase and L-glutamine. Other details are described in Larm et al. (1996). Absorbance was read at 570 nm using a Ceres UV900 microplate reader. Control cultures were included in each experiment containing either vehicle alone or vehicle plus compound. These controls were taken as 100% neuronal viability, under the experimental conditions, and each experiment also included 500 μM L-glutamate representing 100% glutamatergic neuronal cell death. Background cell death in vehicle control cultures was 5-8%.
Concentration-response curves were generated as described elsewhere (Larm et al., 1996).

[4] = Gotti et al., 1988; cited from earlier work
[5] = tested on: polyamine sensitive binding site of the NMDA receptor complex; settings: Carter et al., Reynolds et al., Robinson et al.; cited from earlier work
[6] = tested on: methamphetamine-induced loss of neostriatal tyrosine hydroxylase activity; settings: mice; Sonsalla et al., 1991; cited from earlier work
[7] = Fe^3+ 100 μM, read-out: ~IC50 (inhibition of MDA formation), Fe^3+ 100 μM
[8] = Fe^3+ 1000 μM, read-out: ~IC50 (inhibition of MDA formation), Fe^3+ 1000 μM

| SMILES | IC50 [1, 7] | IC50 [1, 8] | Ki [2] | EC50 [3] | neuroprotective properties / antiischaemic [4] | interaction with the polyamine sensitive site of the NMDA receptor complex [5] | protection from methamphetamine-induced loss of neostriatal tyrosine hydroxylase activity [6] |
| --- | --- | --- | --- | --- | --- | --- | --- |
| COc1ccc(OC)c(C(O)CN2CCN(Cc3cc(C(C)(C)C)c(O)c(C(C)(C)C)c3)CC2)c1 (stereo not shown) [Compound 247, 1-(2-(2,5-dimethoxyphenyl)-2-hydroxy)ethyl-4-(3,5-bis(1,1-dimethylethyl)-4-hydroxyphenyl)methylpiperazine] | ~9.9 µM | ~10.3 µM | 8.5 ± 3.1 µM | – | – | – | – |
| CC(C)(C)c1cc(CN2CCN(CC(O)c3ccc(Cl)s3)CC2)cc(C(C)(C)C)c1O (stereo not shown) [Compound 229, 1-(2-(2-chlorothiophen-5-yl)-2-hydroxy)ethyl-4-(3,5-bis(1,1-dimethylethyl)-4-hydroxyphenyl)methylpiperazine] | – | – | 19.6 ± 5.2 µM | – | – | – | – |
| C[C@H]([C@H](O)c1ccc(O)cc1)N1CCN(Cc2cc(C(C)(C)C)c(O)c(C(C)(C)C)c2)CC1 (relative stereo) [Compound 2 ((R, R)-racemic)] | – | – | – | 1.28 µM | – | – | – |
| CC(C)(C)c1cc(CN2CCN(CC(O)c3ccc(Br)cc3)CC2)cc(C(C)(C)C)c1O (stereo not shown) [Compound 65, 1-(2-(4-bromophenyl)-2-hydroxy)ethyl-4-(3,5-bis(1,1-dimethylethyl)-4-hydroxyphenyl)methylpiperazine] | ~96.8 µM | ~53.3 µM | 7 ± 1.5 µM | 0.24 µM | – | – | – |
| CC(C)(C)c1cc(CN2CCN(CC(O)c3cccc([N+](=O)[O-])c3)CC2)cc(C(C)(C)C)c1O (stereo not shown) [Example 6, 1-(2-(3-nitrophenyl)-2-hydroxy)ethyl-4-(3,5-bis(1,1-dimethylethyl)-4-hydroxyphenyl)methyl piperazine] | ~32.4 µM | ~26.6 µM | 15.1 ± 6.1 µM | – | – | – | – |
| CC(C)(C)c1cc(CN2CCN(CC(O)c3ccc(F)cc3)CC2)cc(C(C)(C)C)c1O (stereo not shown) [Compound 161, 1-(2-(4-fluorophenyl)-2-hydroxy)ethyl-4-(3,5-bis(1,1-dimethylethyl)-4-hydroxyphenyl)methylpiperazine] | ~19.5 µM | ~15.2 µM | 5.4 ± 0.6 µM | – | – | – | – |
| CC(C(O)c1ccc(Cl)cc1)N1CCN(Cc2cc(C(C)(C)C)c(O)c(C(C)(C)C)c2)CC1 (stereo not shown) [Compound 34, 1-(2-(4-Chlorophenyl)-2-hydroxy-1-methyl)ethyl-4-(3,5-bis(1,1-dimethylethyl)-4-hydroxyphenyl)methylpiperazine] | ~25.4 µM | ~36.3 µM | 14.6 ± 2.8 µM | – | – | – | – |
| CC(C)(C)c1cc(CN2CCN(CC(O)c3ccc(Cl)cc3)CC2)cc(C(C)(C)C)c1O (stereo not shown) [Compound 33, 1-(2-(4-Chlorophenyl)-2-hydroxy)ethyl-4-(3,5-bis(1,1-dimethylethyl)-4-hydroxyphenyl)methylpiperazine] | ~57.2 µM | ~41.4 µM | 10.8 ± 0.6 µM | 0.39 µM | – | – | – |
| CC(C)(C)c1cc(CN2CCN(CC(O)c3ccc(O)cc3)CC2)cc(C(C)(C)C)c1O (stereo not shown) [Compound 1, 1-(2-(4-hydroxyphenyl)-2-hydroxy)ethyl-4-(3,5-bis(1,1-dimethylethyl)-4-hydroxyphenyl)methylpiperazine] | ~32.7 µM | ~18.3 µM | 13 ± 0.6 µM | – | – | – | – |
| OC(CN1CCC(Cc2ccc(F)cc2)CC1)c1ccc(Cl)cc1 (stereo not shown) [eliprodil] | – | – | – | – | neuroprotective properties in models of neurodegeneration following ischaemia | interacting with the polyamine sensitive binding site of the NMDA receptor | – |
| CC(C)(C)c1cc(CN2CCN(CC(O)c3cccc(Cl)c3)CC2)cc(C(C)(C)C)c1O (stereo not shown) [Example 12, 1-(2-(3-chlorophenyl)-2-hydroxy)ethyl-4-(3,5-bis(1,1-dimethylethyl)-4-hydroxyphenyl)methylpiperazine] | – | – | – | 0.76 µM | – | – | – |
| C[C@@H]([C@H](O)c1ccc(O)cc1)N1CCN(Cc2cc(C(C)(C)C)c(O)c(C(C)(C)C)c2)CC1 (relative stereo) | – | – | – | 3.01 µM | – | – | – |
| CC(C(O)c1ccc(O)cc1)N1CCC(Cc2ccccc2)CC1 (stereo not shown) [ifenprodil] | – | – | 19.5 ± 1.2 µM | – | neuroprotective properties in models of neurodegeneration following ischaemia | interacting with the polyamine sensitive binding site of the NMDA receptor | protect mice from the methamphetamine-induced loss of neostriatal tyrosine hydroxylase activity |
| Cc1c(C)c2c(c(C)c1O)CCC(C)(C(=O)O)O2 (stereo not shown) [trolox, reference compound] | ~88.2 µM | ~90.8 µM | – | – | – | – | – |
| Cc1c(C)c2c(c(C)c1O)CCC(C)(CN1CCN(CC(O)c3ccc(Cl)cc3)CC1)O2 (stereo not shown) [Compound 49] | ~3.6 µM | ~2.4 µM | 15.2 ± 3.9 µM | 2.9 µM | – | – | – |
| C[C@@H]([C@H](O)c1ccc(O)cc1)N1CCN(Cc2cc(C(C)(C)C)c(O)c(C(C)(C)C)c2)CC1 (relative stereo) [2 ((R, S)-racemic)] | ~23.8 µM | ~24.1 µM | 14.5 ± 5.6 µM | – | – | – | – |
| C[C@H]([C@H](O)c1ccc(O)cc1)N1CCN(Cc2cc(C(C)(C)C)c(O)c(C(C)(C)C)c2)CC1 (relative stereo) [2 ((R, R)-racemic)] | ~16.8 µM | ~14.9 µM | 15.7 ± 4.6 µM | – | – | – | – |
| CC(C)(C)c1cc(CN2CCN(CC(O)c3ccc(OC(F)(F)F)cc3)CC2)cc(C(C)(C)C)c1O (stereo not shown) [Compound 193, 1-(2-(4-trifluoromethoxyphenyl)-2-hydroxy)ethyl-4-(3,5-bis(1,1-dimethylethyl)-4-hydroxyphenyl)methylpiperazine] | ~59.6 µM | ~22.3 µM | 11.7 ± 1 µM | – | – | – | – |
| Cc1cc(CN2CCN(CC(O)c3ccc(Cl)cc3)CC2)cc(C(C)(C)C)c1O (stereo not shown) [Compound 265, 1-(2-(4-chlorophenyl)-2-hydroxy)ethyl-4-(3-(1,1-dimethylethyl)-4-hydroxy-5-methylphenyl)methylpiperazine] | ~59.4 µM | ~38.5 µM | 13.2 ± 2.6 µM | – | – | – | – |
| CC(C)(C)c1cc(CN2CCN(CC(O)c3ccc4c(c3)OCO4)CC2)cc(C(C)(C)C)c1O (stereo not shown) [Compound 211, 1-(2-(3,4-methylenedioxyphenyl)-2-hydroxy)ethyl-4-(3,5-bis(1,1-dimethylethyl)-4-hydroxyphenyl)methyl piperazine] | – | – | 19.1 ± 5.7 µM | – | – | – | – |
| CC(C)(C)c1cc(CN2CCN(CCC(O)c3ccc(Cl)cc3)CC2)cc(C(C)(C)C)c1O (stereo not shown) [Compound 35, 1-(3-(4-Chlorophenyl)-3-hydroxy)propyl-4-(3,5-bis(1,1-dimethylethyl)-4-hydroxyphenyl)methylpiperazine] | ~27.9 µM | ~9.3 µM | 16.8 ± 3.2 µM | – | – | – | – |
| Cc1cc(OCCN2CCN(CC(O)c3ccc(Cl)cc3)CC2)c(C)c(C)c1O (stereo not shown) [Example 21, 1-(2-(4'-chlorophenyl)-2-hydroxy)ethyl-4-(2-(2', 3', 5'-trimethyl-4'-hydroxyphenoxy))ethyl piperazine] | < 3 µM | < 1 µM | 6.1 ± 2 µM | – | – | – | – |
